Data set [1] is described as follows: Half life in Sprague-Dawley rat liver microsomes at 6 ug/ml by HPLC method. The format is ADME.
Data set [2] deals with T1, Sterol O-acyltransferase 2 (Mus musculus) (UniProt O88908).
T1 sequence (whole entry): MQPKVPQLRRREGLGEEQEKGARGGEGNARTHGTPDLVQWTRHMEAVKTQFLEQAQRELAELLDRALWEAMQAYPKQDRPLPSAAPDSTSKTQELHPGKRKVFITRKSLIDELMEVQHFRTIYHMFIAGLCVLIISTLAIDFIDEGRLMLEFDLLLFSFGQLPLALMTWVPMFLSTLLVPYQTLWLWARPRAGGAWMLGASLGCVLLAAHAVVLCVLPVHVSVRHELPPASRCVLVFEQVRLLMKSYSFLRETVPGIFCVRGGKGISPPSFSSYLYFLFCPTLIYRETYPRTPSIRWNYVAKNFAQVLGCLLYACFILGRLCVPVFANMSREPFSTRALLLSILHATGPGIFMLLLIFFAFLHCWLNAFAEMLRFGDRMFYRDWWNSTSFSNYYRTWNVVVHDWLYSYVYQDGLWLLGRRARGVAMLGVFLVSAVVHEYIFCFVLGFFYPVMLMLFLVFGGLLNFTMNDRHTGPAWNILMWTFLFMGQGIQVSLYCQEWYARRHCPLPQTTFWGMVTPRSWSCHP
Briefly: Ratio of compound IC50 to PRD 043 IC50 for ACAT2 in mouse hepatic microsomal membranes. The format is cell membranes. The following applies: Liver, Microsomal Membrane.

Here are results for 33 compounds from ChEMBL document CHEMBL3880418, “Pyripyropene derivative having ACAT2 inhibiting activity and stable to metabolizing enzymes” (2013).

Each structure is given as a SMILES string.

On to `COc1ccc(C(OC)O[C@H]2C[C@H]3[C@]4(C)CO[C@@H](c5ccccc5)O[C@H]4CC[C@]3(C)[C@H]3[C@@H](O)c4c(cc(-c5cccnc5)oc4=O)O[C@]23C)cc1` (some centres undefined), for which the half-life – broadly, the time needed for the level to fall by half in the phase considered – at 6 ug/ml in data set [1] is above 9 h. The Ratio IC50 in data set [2] was below 20.
For `C[C@]1(COC(=O)c2ccccc2)[C@@H]2C[C@H](OC(=O)c3ccc(C#N)cc3)[C@@]3(C)Oc4cc(-c5cccnc5)oc(=O)c4[C@H](O)[C@@H]3[C@@]2(C)CC[C@@H]1OC(=O)c1ccccc1`, in that order: above 9 h and below 20.
For `Cc1ccc([C@@H]2OC[C@@]3(C)[C@@H]4C[C@H](OC(=O)c5ccc(C#N)cc5)[C@@]5(C)Oc6cc(-c7cccnc7)oc(=O)c6[C@H](O)[C@@H]5[C@@]4(C)CC[C@@H]3O2)c(C)c1`, in that order: above 9 h and below 20.
The corresponding values for `CC(=O)O[C@H]1CC[C@@]2(C)[C@@H](C[C@H](OC(=O)c3ccc(C#N)cc3)[C@@]3(C)Oc4cc(-c5cccnc5)oc(=O)c4[C@H](O)[C@H]23)[C@]1(C)COC(=O)c1ccccc1` are above 9 h and below 20.
In the case of `Cc1cccc([C@@H]2OC[C@@]3(C)[C@@H]4C[C@H](OC(=O)c5ccc(C#N)cc5)[C@@]5(C)Oc6cc(-c7cccnc7)oc(=O)c6[C@H](O)[C@@H]5[C@@]4(C)CC[C@@H]3O2)c1`, in data set [2], the Ratio IC50 was below 20.
With `C[C@@]12CO[C@@H](c3ccccc3)O[C@H]1CC[C@@]1(C)[C@H]2C[C@H](OC(=O)C2CCCCC2)[C@@]2(C)Oc3cc(-c4cccnc4)oc(=O)c3[C@H](O)[C@H]12`, in data set [1], the half-life at 6 ug/ml was above 9 h. In addition, in data set [2], the Ratio IC50 is below 20.
`Cc1cccc([C@@H]2OC[C@@]3(C)[C@@H]4C[C@H](OC(=O)c5ccc(F)cc5)[C@@]5(C)Oc6cc(-c7cccnc7)oc(=O)c6[C@H](O)[C@@H]5[C@@]4(C)CC[C@@H]3O2)c1` had a half-life at 6 ug/ml in data set [1] above 9 h. Also, in data set [2], the Ratio IC50 is below 20.
In turn, `CC(=O)OCC1(C)[C@@H](OC(C)=O)CC[C@]2(C)[C@H]3[C@@H](O)c4c(cc(-c5cccnc5)oc4=O)O[C@]3(C)[C@@H](OC(=O)C3CCCCC3)C[C@@H]12` (single isomer, unassigned) displayed a half-life at 6 ug/ml in data set [1] below 1 h.
As to `Cc1ccc([C@@H]2OC[C@@]3(C)[C@@H]4C[C@H](OC(=O)c5ccc(F)cc5)[C@@]5(C)Oc6cc(-c7cccnc7)oc(=O)c6[C@H](O)[C@@H]5[C@@]4(C)CC[C@@H]3O2)c(C)c1`, the half-life at 6 ug/ml in data set [1] was above 9 h. Further, the Ratio IC50 in data set [2] is below 20.
The corresponding values for `COc1ccccc1[C@@H]1OC[C@@]2(C)[C@@H]3C[C@H](OC(=O)c4ccc(C#N)cc4)[C@@]4(C)Oc5cc(-c6cccnc6)oc(=O)c5[C@H](O)[C@@H]4[C@@]3(C)CC[C@@H]2O1` are above 9 h and below 20.
The corresponding values for `CC(C)C(=O)OCC1(C)[C@@H](OC(=O)C(C)C)CC[C@]2(C)[C@H]3[C@@H](O)c4c(cc(-c5cccnc5)oc4=O)O[C@]3(C)[C@@H](OC(=O)c3ccc(C#N)cc3)C[C@@H]12` (single isomer, unassigned) are above 9 h and below 1.
In turn, `COc1cccc(C(=O)O[C@H]2C[C@H]3C(C)(COC(C)=O)[C@@H](OC(C)=O)CC[C@]3(C)[C@H]3[C@@H](O)c4c(cc(-c5cccnc5)oc4=O)O[C@]23C)c1` (single isomer, unassigned) displayed a half-life at 6 ug/ml in data set [1] above 9 h. The Ratio IC50 in data set [2] is below 5.
The corresponding values for `CC(C)C(=O)OC[C@@]1(C)[C@@H]2C[C@H](OC(=O)c3ccc([N+](=O)[O-])cc3)[C@@]3(C)Oc4cc(-c5cccnc5)oc(=O)c4[C@H](O)[C@@H]3[C@@]2(C)CC[C@@H]1OC(=O)C(C)C` are above 9 h and below 20.
The corresponding values for `CC(=O)O[C@H]1C[C@H]2[C@](C)(COC(=O)C(C)C)[C@@H](OC(=O)C(C)C)CC[C@]2(C)[C@H]2[C@@H](O)c3c(cc(-c4cccnc4)oc3=O)O[C@]12C` are above 9 h and below 20.
Consider `CC(C)C(=O)OC[C@@]1(C)[C@@H]2C[C@H](OC(=O)C3CCCCC3)[C@@]3(C)Oc4cc(-c5cccnc5)oc(=O)c4[C@H](O)[C@@H]3[C@@]2(C)CC[C@@H]1OC(=O)C(C)C`, for which, in data set [1], the half-life at 6 ug/ml is above 9 h. The Ratio IC50 in data set [2] is below 20.
On to `CC(=O)OCC1(C)[C@@H](OC(C)=O)CC[C@]2(C)[C@H]3[C@@H](O)c4c(cc(-c5cccnc5)oc4=O)O[C@]3(C)[C@@H](OC(=O)c3ccc(C)cc3)C[C@@H]12` (single isomer, unassigned), for which, in data set [1], the half-life at 6 ug/ml was below 1 h.
`COC(=O)[C@@]1(C)[C@@H](OC(C)=O)CC[C@]2(C)[C@H]3[C@@H](O)c4c(cc(-c5cccnc5)oc4=O)O[C@]3(C)[C@@H](OC(=O)c3ccc(C#N)cc3)C[C@H]21` returned a half-life at 6 ug/ml in data set [1] above 9 h. In addition, the Ratio IC50 in data set [2] is below 20.
Take `C[C@@]12CO[C@@H](c3cccc4ccccc34)O[C@H]1CC[C@@]1(C)[C@H]2C[C@H](OC(=O)c2ccc(C#N)cc2)[C@@]2(C)Oc3cc(-c4cccnc4)oc(=O)c3[C@H](O)[C@H]12`: the half-life at 6 ug/ml in data set [1] is above 9 h. For the same compound, in data set [2], the Ratio IC50 is below 20.
In the case of `CC(=O)OC[C@@]1(C)[C@@H]2C[C@H](OC(=O)c3ccc(C#N)cc3)[C@@]3(C)Oc4cc(-c5cccnc5)oc(=O)c4[C@H](O)[C@@H]3[C@@]2(C)CC[C@@H]1OC(=O)c1ccccc1`, in data set [1], the half-life at 6 ug/ml was above 9 h. For the same compound, the Ratio IC50 in data set [2] was below 20.
`C[C@@]12CO[C@@H](c3ccccc3)O[C@H]1CC[C@@]1(C)[C@H]2C[C@H](OC(=O)c2ccccc2)[C@@]2(C)Oc3cc(-c4cccnc4)oc(=O)c3[C@H](O)[C@H]12` came in with a half-life at 6 ug/ml in data set [1] above 9 h. Also, the Ratio IC50 in data set [2] was below 20.
Turning to `CC(=O)O[C@H]1C[C@H]2[C@]3(C)CO[C@@H](c4ccccc4)O[C@H]3CC[C@]2(C)[C@H]2[C@@H](O)c3c(cc(-c4cccnc4)oc3=O)O[C@]12C`, the half-life at 6 ug/ml in data set [1] was above 9 h. Besides, the Ratio IC50 in data set [2] was below 20.
Take `CC(=O)O[C@H]1CC[C@@]2(C)[C@@H](C[C@H](OC(=O)c3ccc(C#N)cc3)[C@@]3(C)Oc4cc(-c5cccnc5)oc(=O)c4[C@H](O)[C@H]23)[C@]1(C)COC(=O)C(C)C`: in data set [1], the half-life at 6 ug/ml is above 9 h. In data set [2], the Ratio IC50 was below 20.
The compound `CC(=O)OCC1(C)[C@@H](OC(C)=O)CC[C@]2(C)[C@H]3[C@@H](O)c4c(cc(-c5cccnc5)oc4=O)O[C@]3(C)[C@@H](OC(=O)c3ccccc3F)C[C@@H]12` (single isomer, unassigned) registered a half-life at 6 ug/ml in data set [1] below 1 h.
In turn, `Cc1ccc([C@@H]2OC[C@@]3(C)[C@@H]4C[C@H](OC(=O)c5ccc(C#N)cc5)[C@@]5(C)Oc6cc(-c7cccnc7)oc(=O)c6[C@H](O)[C@@H]5[C@@]4(C)CC[C@@H]3O2)cc1` returned a half-life at 6 ug/ml in data set [1] above 9 h. In data set [2], the Ratio IC50 was below 20.
On to `CCc1ccc(C(=O)O[C@H]2C[C@H]3C(C)(COC(C)=O)[C@@H](OC(C)=O)CC[C@]3(C)[C@H]3[C@@H](O)c4c(cc(-c5cccnc5)oc4=O)O[C@]23C)cc1` (single isomer, unassigned), for which the half-life at 6 ug/ml in data set [1] was below 1 h.
The compound `Cc1ccccc1[C@@H]1OC[C@@]2(C)[C@@H]3C[C@H](OC(=O)c4ccc(C#N)cc4)[C@@]4(C)Oc5cc(-c6cccnc6)oc(=O)c5[C@H](O)[C@@H]4[C@@]3(C)CC[C@@H]2O1` yielded a half-life at 6 ug/ml in data set [1] above 9 h. In addition, the Ratio IC50 in data set [2] is below 20.
For `Cc1ccccc1[C@@H]1OC[C@@]2(C)[C@@H]3C[C@H](OC(=O)c4ccc(F)cc4)[C@@]4(C)Oc5cc(-c6cccnc6)oc(=O)c5[C@H](O)[C@@H]4[C@@]3(C)CC[C@@H]2O1`, in that order: above 9 h and below 20.
The corresponding values for `CC(=O)O[C@H]1CC[C@@]2(C)[C@@H](C[C@H](OC(C)=O)[C@@]3(C)Oc4cc(-c5cccnc5)oc(=O)c4[C@H](O)[C@H]23)[C@]1(C)COC(=O)c1ccccc1` are above 9 h and below 20.
In data set [1], `CC(=O)OCC1(C)[C@@H](OC(C)=O)CC[C@]2(C)[C@H]3[C@@H](O)c4c(cc(-c5cccnc5)oc4=O)O[C@]3(C)[C@@H](OC(=O)c3cccc(Br)c3)C[C@@H]12` (single isomer, unassigned) gave a half-life at 6 ug/ml below 1 h.
Same read-out and setting: to `CC(=O)OCC1(C)[C@@H](OC(C)=O)CC[C@]2(C)[C@H]3[C@@H](O)c4c(cc(-c5cccnc5)oc4=O)O[C@]3(C)[C@@H](OC(=O)c3ccccc3C)C[C@@H]12` (single isomer, unassigned) belongs below 1 h.
`Cc1ccc([C@@H]2OC[C@@]3(C)[C@@H]4C[C@H](OC(=O)c5ccc(F)cc5)[C@@]5(C)Oc6cc(-c7cccnc7)oc(=O)c6[C@H](O)[C@@H]5[C@@]4(C)CC[C@@H]3O2)cc1`: in data set [1], the half-life at 6 ug/ml was above 9 h. The Ratio IC50 in data set [2] was below 20.
The corresponding values for `Cc1cccc(C)c1[C@@H]1OC[C@@]2(C)[C@@H]3C[C@H](OC(=O)c4ccc(C#N)cc4)[C@@]4(C)Oc5cc(-c6cccnc6)oc(=O)c5[C@H](O)[C@@H]4[C@@]3(C)CC[C@@H]2O1` are above 9 h and below 20.
The corresponding values for `COc1ccccc1[C@@H]1OC[C@@]2(C)[C@@H]3C[C@H](OC(=O)c4ccc(F)cc4)[C@@]4(C)Oc5cc(-c6cccnc6)oc(=O)c5[C@H](O)[C@@H]4[C@@]3(C)CC[C@@H]2O1` are above 9 h and below 20.
